Assay results taken from US20210045385A1, “PYRIDAZINONE-SUBSTITUTED KETOXIMES AS HERBICIDES” (FMC Corporation, priority 2018, published 2021).

How the values were obtained:
Type in all cases: in vivo
[1] = tested on: Italian ryegrass (Lolium multiflorum); assay: Test A preemergence, visual plant response rating; settings: for Ryegrass, Italian plant response rating: 125 g ai/ha, preemergence, 0 to 100 scale, 0 no effect, 100 complete control; for Ryegrass, Italian plant response rating (0 to 100 scale): 500 g ai/ha Preemergence, approx. 10 days
Summary of the method: (§1)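 Compared with untreated controls, treated plants received a visual injury score on a 0–100 scale around 10 days after application. The compound, in a non-phytotoxic solvent with surfactant, was given as a preemergence soil spray or postemergence at the one- to two-leaf stage.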

[2] = tested on: barnyardgrass (Echinochloa crus-galli); assay: Test A preemergence, visual plant response rating; settings: for Barnyardgrass plant response rating: 125 g ai/ha, preemergence, 0 to 100 scale, 0 no effect, 100 complete control; for Barnyardgrass plant response rating (0 to 100 scale): 500 g ai/ha Preemergence, approx. 10 days
Summary of the method: as §1

[3] = tested on: foxtail, giant (giant foxtail, Setaria faberii); assay: Test A preemergence, visual plant response rating; settings: for Foxtail, Giant plant response rating: 125 g ai/ha, preemergence, 0 to 100 scale, 0 no effect, 100 complete control; for Foxtail, Giant plant response rating (0 to 100 scale): 500 g ai/ha Preemergence, approx. 10 days
Summary of the method: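 Formulated in a non-phytotoxic solvent mixture including surfactant, each test chemical was sprayed onto the soil surface after sowing, or onto seedlings 2 to 10 cm high. Roughly 10 days later, plants were compared with untreated controls and rated for injury from 0 (no effect) to 100 (complete control).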

kochia (Kochia scoparia) [4] = assay: Test A preemergence, visual plant response rating; settings: for Kochia plant response rating: 125 g ai/ha, preemergence, 0 to 100 scale, 0 no effect, 100 complete control; for Kochia plant response rating (0 to 100 scale): 500 g ai/ha Preemergence, approx. 10 days
Summary of the method: as §1

[5] = tested on: pigweed (Amaranthus retroflexus); assay: Test A preemergence, visual plant response rating; settings: for Pigweed plant response rating: 125 g ai/ha, preemergence, 0 to 100 scale, 0 no effect, 100 complete control; for Pigweed plant response rating (0 to 100 scale): 500 g ai/ha Preemergence, approx. 10 days
Summary of the method: as §1

[6] = tested on: ragweed (common ragweed, Ambrosia elatior); assay: Test A preemergence, visual plant response rating; settings: for Ragweed plant response rating: 125 g ai/ha, preemergence, 0 to 100 scale, 0 no effect, 100 complete control; for Ragweed plant response rating (0 to 100 scale): 500 g ai/ha Preemergence, approx. 10 days
Summary of the method: as §1

[7] = tested on: Italian ryegrass (Lolium multiflorum); assay: Test A postemergence, visual plant response rating; settings: for Ryegrass, Italian plant response rating: 125 g ai/ha, 0 to 100 scale (0 no effect, 100 complete control)
Summary of the method: as §1

[8] = tested on: barnyardgrass (Echinochloa crus-galli); assay: Test A postemergence, visual plant response rating; settings: for Barnyardgrass plant response rating (0 to 100 scale): 500 g ai/ha, postemergence, 0 is no effect, 100 is complete control; for Barnyardgrass plant response rating: Postemergence, 125 g ai/ha, 0 to 100 scale (0 no effect, 100 complete control)
Summary of the method: as §1

[9] = tested on: blackgrass (Alopecurus myosuroides); assay: Test A postemergence, visual plant response rating; settings: for Blackgrass plant response rating (0 to 100 scale): 500 g ai/ha, postemergence, 0 is no effect, 100 is complete control; for Blackgrass plant response rating: Postemergence, 125 g ai/ha, 0 to 100 scale (0 no effect, 100 complete control)
Summary of the method: as §1

corn (Zea mays) = assay: Test A postemergence, visual plant response rating; settings: for Corn plant response rating (0 to 100 scale): 500 g ai/ha, postemergence, 0 is no effect, 100 is complete control; for Corn plant response rating: Postemergence, 125 g ai/ha, 0 to 100 scale (0 no effect, 100 complete control)
Summary of the method: as §1

[10] = tested on: foxtail, giant (giant foxtail, Setaria faberii); assay: Test A postemergence, visual plant response rating; settings: for Foxtail, Giant plant response rating (0 to 100 scale): 500 g ai/ha, postemergence, 0 is no effect, 100 is complete control; for Foxtail, Giant plant response rating: Postemergence, 125 g ai/ha, 0 to 100 scale (0 no effect, 100 complete control)
Summary of the method: as §1

[11] = tested on: galium (catchweed bedstraw, Galium aparine); assay: Test A postemergence, visual plant response rating; settings: for Galium plant response rating (0 to 100 scale): 500 g ai/ha, postemergence, 0 is no effect, 100 is complete control; for Galium plant response rating: Postemergence, 125 g ai/ha, 0 to 100 scale (0 no effect, 100 complete control)
Summary of the method: as §1

kochia (Kochia scoparia) [12] = assay: Test A postemergence, visual plant response rating; settings: for Kochia plant response rating (0 to 100 scale): 500 g ai/ha, postemergence, 0 is no effect, 100 is complete control; for Kochia plant response rating: Postemergence, 125 g ai/ha, 0 to 100 scale (0 no effect, 100 complete control)
Summary of the method: as §1

[13] = tested on: pigweed (Amaranthus retroflexus); assay: Test A postemergence, visual plant response rating; settings: for Pigweed plant response rating (0 to 100 scale): 500 g ai/ha, postemergence, 0 is no effect, 100 is complete control; for Pigweed plant response rating: Postemergence, 125 g ai/ha, 0 to 100 scale (0 no effect, 100 complete control)
Summary of the method: as §1

[14] = tested on: ragweed (common ragweed, Ambrosia elatior); assay: Test A postemergence, visual plant response rating; settings: for Ragweed plant response rating (0 to 100 scale): 500 g ai/ha, postemergence, 0 is no effect, 100 is complete control; for Ragweed plant response rating: Postemergence, 125 g ai/ha, 0 to 100 scale (0 no effect, 100 complete control)
Summary of the method: as §1

[15] = tested on: wheat (Triticum aestivum); assay: Test A postemergence, visual plant response rating; settings: for Wheat plant response rating: 0 to 100 scale (0 no effect, 100 complete control)
Summary of the method: as §1

[16] = tested on: barnyardgrass (Echinochloa crus-galli); assay: Test B flooded paddy test, visual plant response rating; settings: 250 g ai/ha, Flood, applied to paddy water, 2-leaf stage, evaluated after 13 to 15 days
Summary of the method: (§2)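 Compounds added straight into paddy water of pots flooded to 3 cm, with 2-leaf-stage plants of the four species; water level held throughout.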

[17] = tested on: ducksalad (Heteranhera limosa); assay: as above; settings: 250 g ai/ha, Flood, applied to paddy water, 2-leaf stage, evaluated after 13 to 15 days
Summary of the method: as §2

rice (Oryza sativa) = assay: as above; settings: 250 g ai/ha, Flood, applied to paddy water, 2-leaf stage, evaluated after 13 to 15 days
Summary of the method: as §2

[18] = tested on: sedge, umbrella (small-flower umbrella sedge, Cyperus difformis); assay: as above; settings: 250 g ai/ha, Flood, applied to paddy water, 2-leaf stage, evaluated after 13 to 15 days
Summary of the method: as §2

[19] = 500 g ai/ha, postemergence, 0 is no effect, 100 is complete control

Compound	Ryegrass, Italian plant response rating [1]	Ryegrass, Italian plant response rating (0 to 100 scale) [1]	Barnyardgrass plant response rating [2]	Barnyardgrass plant response rating (0 to 100 scale) [2]	Foxtail, Giant plant response rating [3]	Foxtail, Giant plant response rating (0 to 100 scale) [3]	Kochia plant response rating (kochia (Kochia scoparia) [4])	Kochia plant response rating (0 to 100 scale) (kochia (Kochia scoparia) [4])	Pigweed plant response rating [5]	Pigweed plant response rating (0 to 100 scale) [5]	Ragweed plant response rating [6]	Ragweed plant response rating (0 to 100 scale) [6]	Ryegrass, Italian plant response rating (0 to 100 scale) [7, 19]	Barnyardgrass plant response rating (0 to 100 scale) [8]	Barnyardgrass plant response rating [8]	Blackgrass plant response rating (0 to 100 scale) [9]	Blackgrass plant response rating [9]	Corn plant response rating (0 to 100 scale) (corn (Zea mays))	Corn plant response rating (corn (Zea mays))	Foxtail, Giant plant response rating (0 to 100 scale) [10]	further results
CO/N=C(\c1cc(C)ccc1Cl)c1c(O)c(C)nn(C)c1=O [Compound 38]	0	0	0	0	0	10	0	20	0	0	30	30	20	20	20	30	10	20	10	30	Ryegrass, Italian plant response rating ([7]; Postemergence): 10; Foxtail, Giant plant response rating [10]: 10; Galium plant response rating (0 to 100 scale) [11]: 90; Galium plant response rating [11]: 80; Kochia plant response rating (0 to 100 scale) (kochia (Kochia scoparia) [12]): 50; Kochia plant response rating (kochia (Kochia scoparia) [12]): 10; Pigweed plant response rating (0 to 100 scale) [13]: 60; Pigweed plant response rating [13]: 20; Ragweed plant response rating (0 to 100 scale) [14]: 70; Ragweed plant response rating [14]: 60; Wheat plant response rating (0 to 100 scale) [15, 19]: 0; Wheat plant response rating ([15]; Postemergence, 125 g ai/ha): 0; Plant response rating, Barnyardgrass (0 to 100 scale, 0 is no effect, 100 is complete control) [16]: 0; Plant response rating, Ducksalad (0 to 100 scale, 0 is no effect, 100 is complete control) [17]: 0; Plant response rating, Rice (0 to 100 scale, 0 is no effect, 100 is complete control) (rice (Oryza sativa)): 0; Plant response rating, Sedge, Umbrella (0 to 100 scale, 0 is no effect, 100 is complete control) [18]: 0
CO/N=C(/c1c(O)c(C)nn(C)c1=O)c1ccc(OC)c2ccccc12 [Compound 142]	0	20	0	50	10	60	0	0	0	0	0	20	70	10	10	80	30	30	0	30	Ryegrass, Italian plant response rating (0 to 100 scale) ([7]; Postemergence, rate not given, approx. 10 days): 0; Foxtail, Giant plant response rating [10]: 20; Galium plant response rating (0 to 100 scale) [11]: 70; Galium plant response rating [11]: 50; Kochia plant response rating (0 to 100 scale) (kochia (Kochia scoparia) [12]): 30; Kochia plant response rating (kochia (Kochia scoparia) [12]): 0; Pigweed plant response rating (0 to 100 scale) [13]: 10; Pigweed plant response rating [13]: 10; Ragweed plant response rating (0 to 100 scale) [14]: 30; Ragweed plant response rating [14]: 0; Wheat plant response rating ([15]; Postemergence, 500 g ai/ha): 10; Wheat plant response rating (0 to 100 scale) ([15]; Postemergence, approx. 10 days): 0; Plant response rating, Barnyardgrass (0 to 100 scale, 0 is no effect, 100 is complete control) [16]: 0; Plant response rating, Ducksalad (0 to 100 scale, 0 is no effect, 100 is complete control) [17]: 0; Plant response rating, Rice (0 to 100 scale, 0 is no effect, 100 is complete control) (rice (Oryza sativa)): 0; Plant response rating, Sedge, Umbrella (0 to 100 scale, 0 is no effect, 100 is complete control) [18]: 0
CCO/N=C(/c1c(O)c(C)nn(C)c1=O)c1ccc(F)c2ccccc12 [Compound 84]	100	100	60	100	100	100	20	60	100	100	80	100	100	80	60	100	90	30	20	80	Ryegrass, Italian plant response rating ([7]; Postemergence): 90; Foxtail, Giant plant response rating [10]: 70; Galium plant response rating (0 to 100 scale) [11]: 100; Galium plant response rating [11]: 90; Kochia plant response rating (0 to 100 scale) (kochia (Kochia scoparia) [12]): 80; Kochia plant response rating (kochia (Kochia scoparia) [12]): 70; Pigweed plant response rating (0 to 100 scale) [13]: 90; Pigweed plant response rating [13]: 80; Ragweed plant response rating (0 to 100 scale) [14]: 100; Ragweed plant response rating [14]: 90; Wheat plant response rating (0 to 100 scale) [15, 19]: 50; Wheat plant response rating ([15]; Postemergence, 125 g ai/ha): 40; Plant response rating, Barnyardgrass (0 to 100 scale, 0 is no effect, 100 is complete control) [16]: 0; Plant response rating, Ducksalad (0 to 100 scale, 0 is no effect, 100 is complete control) [17]: 0; Plant response rating, Rice (0 to 100 scale, 0 is no effect, 100 is complete control) (rice (Oryza sativa)): 0; Plant response rating, Sedge, Umbrella (0 to 100 scale, 0 is no effect, 100 is complete control) [18]: 0
